Here are results for 25 compounds from patent US8022206B2 (OSI Pharmaceuticals, LLC, priority 2008, dated 2011).

The term pIC50 denotes the IC50 on a negative log10 scale, so that one unit is a factor of ten.

pIC50: −log10 of the molar value. A value given as a limit tells only on which side of the number the result lay.

In experiment [1] the target is RON (human) (Homo sapiens, UniProt Q04912). The experiment can be described thus: RON (human) AlphaScreen kinase assay, Km of ATP. The experiment is classed as biochemical. The following applies: AlphaScreen, Km of ATP; read-out: RON biochemical IC50. The protocol: (§1) Someone skilled in the art will appreciate that a variety of assay formats may be used to determine the activity of the compounds of this invention. For example, AlphaScreen (Amplified Luminescent Proximity Homogeneous Assay) technology was used with the kinases described below. Assay ATP concentrations for individual kinases are included in the text.
Desired compound is added in a final concentration of 1% DMSO with control being vehicle of DMSO alone. […] Enzyme is added to initiate the reaction and incubated for 30 min at RT. In subdued light, appropriate amount of PT66 donor and acceptor beads (diluted 1:260 from manufacturer's provision in a 25 mM Tris HCl (pH=7.5), 200 mM NaCl, 100 mM EDTA, 0.3% BSA buffer) are added to the wells. The plates, incubated for 1 h, are read on an AlphaQuest plate reader.
A general note: Alpha assays give light when donor and acceptor beads are brought close together.

Experiment [2] addresses MET (human) (Homo sapiens, UniProt P08581). The experiment in a line: MET (human) AlphaScreen kinase assay, Km of ATP. The format is biochemical. The following applies: AlphaScreen, Km of ATP; read-out: Met biochemical IC50. How it is done: as §1
Desired compound is added in a final concentration of 1% DMSO with control being vehicle of DMSO alone. MET is diluted to the optimized concentration (optimized on a lot-by-lot basis) in an enzyme diluent buffer (50 mM Tris pH=7.4, 1% glycerol, 0.03% Brij35, 0.24 mM EGTA, 1 mM DTT, and 0.003% BSA). Enzyme is added to initiate the reaction and incubated for 60 min at RT. In subdued light, appropriate amount of PT66 donor and acceptor beads (diluted 1:260 from manufacturer's provision in a 25 mM Tris HCl (pH=7.5), 400 mM NaCl, 100 mM EDTA, 0.3% BSA buffer) are added to the wells. The plates, incubated for 1 h, are read on an AlphaQuest plate reader

Chain of RON (human) (Q04912 25-1400): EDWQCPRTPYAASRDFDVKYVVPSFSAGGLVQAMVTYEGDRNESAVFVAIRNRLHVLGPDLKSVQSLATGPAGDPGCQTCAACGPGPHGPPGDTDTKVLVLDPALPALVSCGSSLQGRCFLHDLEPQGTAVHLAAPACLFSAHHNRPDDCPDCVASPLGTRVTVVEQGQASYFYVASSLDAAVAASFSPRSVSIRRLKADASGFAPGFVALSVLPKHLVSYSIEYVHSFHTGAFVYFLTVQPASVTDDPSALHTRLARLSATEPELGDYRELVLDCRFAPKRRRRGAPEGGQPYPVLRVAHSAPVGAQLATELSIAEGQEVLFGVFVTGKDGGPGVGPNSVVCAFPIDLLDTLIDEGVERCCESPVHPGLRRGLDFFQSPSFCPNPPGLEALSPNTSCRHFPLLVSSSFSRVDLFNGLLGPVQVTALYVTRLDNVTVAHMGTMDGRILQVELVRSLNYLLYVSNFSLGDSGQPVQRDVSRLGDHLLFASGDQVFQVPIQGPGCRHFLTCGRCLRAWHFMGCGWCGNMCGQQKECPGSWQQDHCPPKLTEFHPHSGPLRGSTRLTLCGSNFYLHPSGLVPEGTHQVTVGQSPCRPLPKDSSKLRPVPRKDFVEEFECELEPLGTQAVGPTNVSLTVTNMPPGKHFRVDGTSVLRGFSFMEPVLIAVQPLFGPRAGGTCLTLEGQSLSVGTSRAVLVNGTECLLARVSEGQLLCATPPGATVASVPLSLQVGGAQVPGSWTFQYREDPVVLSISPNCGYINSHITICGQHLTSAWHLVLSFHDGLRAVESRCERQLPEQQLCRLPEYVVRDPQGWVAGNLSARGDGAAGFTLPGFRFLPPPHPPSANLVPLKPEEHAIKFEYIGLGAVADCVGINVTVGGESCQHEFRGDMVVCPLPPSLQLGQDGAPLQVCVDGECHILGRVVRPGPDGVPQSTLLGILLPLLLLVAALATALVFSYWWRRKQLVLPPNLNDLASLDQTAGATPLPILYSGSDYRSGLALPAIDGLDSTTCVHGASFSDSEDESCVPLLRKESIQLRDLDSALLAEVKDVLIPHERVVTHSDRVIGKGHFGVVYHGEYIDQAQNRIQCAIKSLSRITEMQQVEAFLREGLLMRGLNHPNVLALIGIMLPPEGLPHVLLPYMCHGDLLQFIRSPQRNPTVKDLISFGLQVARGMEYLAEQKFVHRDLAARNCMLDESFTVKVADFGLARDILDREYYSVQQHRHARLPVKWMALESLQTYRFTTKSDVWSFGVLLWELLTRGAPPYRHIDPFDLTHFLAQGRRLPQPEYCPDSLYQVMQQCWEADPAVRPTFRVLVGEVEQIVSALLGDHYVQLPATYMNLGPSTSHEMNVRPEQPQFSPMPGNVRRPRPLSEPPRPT
Chain of MET (human) (P08581 25-1390): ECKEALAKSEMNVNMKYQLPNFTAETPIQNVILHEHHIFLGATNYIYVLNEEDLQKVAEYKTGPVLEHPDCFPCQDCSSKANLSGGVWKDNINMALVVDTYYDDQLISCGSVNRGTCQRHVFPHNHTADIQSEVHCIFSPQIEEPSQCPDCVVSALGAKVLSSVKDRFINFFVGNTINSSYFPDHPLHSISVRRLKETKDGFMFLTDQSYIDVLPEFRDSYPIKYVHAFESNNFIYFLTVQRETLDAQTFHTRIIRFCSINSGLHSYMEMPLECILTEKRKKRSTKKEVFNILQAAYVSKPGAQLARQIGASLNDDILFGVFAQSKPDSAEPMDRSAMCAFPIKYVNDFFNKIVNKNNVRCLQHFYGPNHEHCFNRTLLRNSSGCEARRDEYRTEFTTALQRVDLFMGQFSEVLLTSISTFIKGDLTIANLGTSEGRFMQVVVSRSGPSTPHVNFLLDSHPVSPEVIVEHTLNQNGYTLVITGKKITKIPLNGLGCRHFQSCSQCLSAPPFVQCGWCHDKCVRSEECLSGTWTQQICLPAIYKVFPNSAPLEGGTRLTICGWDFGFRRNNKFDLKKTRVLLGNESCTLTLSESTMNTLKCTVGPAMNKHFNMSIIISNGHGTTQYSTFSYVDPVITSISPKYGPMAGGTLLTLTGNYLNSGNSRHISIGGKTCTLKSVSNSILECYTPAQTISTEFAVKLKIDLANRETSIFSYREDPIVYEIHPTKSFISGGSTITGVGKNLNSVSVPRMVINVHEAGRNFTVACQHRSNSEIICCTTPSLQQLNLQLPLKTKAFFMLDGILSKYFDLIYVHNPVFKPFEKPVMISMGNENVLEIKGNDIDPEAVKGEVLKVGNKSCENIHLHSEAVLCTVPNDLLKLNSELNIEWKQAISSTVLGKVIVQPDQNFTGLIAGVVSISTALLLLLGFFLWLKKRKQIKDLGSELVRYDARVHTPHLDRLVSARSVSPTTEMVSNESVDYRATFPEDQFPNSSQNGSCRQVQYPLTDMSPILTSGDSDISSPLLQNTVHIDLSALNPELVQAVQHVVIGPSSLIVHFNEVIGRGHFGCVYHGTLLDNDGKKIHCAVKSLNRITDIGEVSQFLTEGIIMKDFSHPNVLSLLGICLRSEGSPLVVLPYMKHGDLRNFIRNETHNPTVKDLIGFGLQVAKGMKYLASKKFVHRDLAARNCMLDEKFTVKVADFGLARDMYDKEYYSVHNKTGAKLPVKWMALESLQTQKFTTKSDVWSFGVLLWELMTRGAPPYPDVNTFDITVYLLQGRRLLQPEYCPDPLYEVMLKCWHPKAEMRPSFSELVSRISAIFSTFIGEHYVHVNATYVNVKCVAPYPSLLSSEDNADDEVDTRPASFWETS

On to `C[C@@H](Oc1c(N)ncc2c(-c3ccc(CN4CCNCC4)s3)coc12)c1c(Cl)ccc(F)c1Cl` [Example 217, 7-[(R)-1-(2,6-Dichloro-3-fluorophenyl)ethoxy]-3-(5-piperazin-1-ylmethylthiophen-2-yl)-furo[3,2-c]pyridin-6-ylamine], for which the pIC50 in experiment [1] and in experiment [2] was above 6.30 each time.

For the compound `C[C@@H](Oc1c(N)ncc2c(-c3ccc(Cn4cccn4)cc3)coc12)c1c(Cl)ccc(F)c1Cl` [Example 110, 7-[(R)-1-(2,6-Dichloro-3-fluorophenyl)ethoxy]-3-(4-pyrazol-1-ylmethylphenyl)-furo[3,2-c]pyridin-6-ylamine], the negative-log IC50 (pIC50) in experiment [1] and in experiment [2] was 5.30 to 6.30 throughout.

Consider `C[C@@H](Oc1c(N)ncc2c(-c3cnn([C@H]4CCNC4)c3)coc12)c1c(Cl)ccc(F)c1Cl` [Example 161, 7-[(1R)-1-(2,6-dichloro-3-fluorophenyl)ethoxy]-3-{1-[(3S)-pyrrolidin-3-yl]-1H-pyrazol-4-yl}furo[3,2-c]pyridin-6-amine], for which the negative-log IC50 (pIC50) in experiment [1] and in experiment [2] was above 6.30 throughout.

Turning to `C[C@@H](Oc1c(N)ncc2c(-c3csc(C=O)c3)coc12)c1c(Cl)ccc(F)c1Cl` [Example 302, 4-{6-Amino-7-[(R)-1-(2,6-dichloro-3-fluorophenyl)ethoxy]furo[3,2-c]pyridin-3-yl}thiophene-2-carbaldehyde], the negative-log IC50 (pIC50) in experiment [1] and in experiment [2] was 5.30 to 6.30 throughout.

As for `CC(=O)c1ccc(-c2coc3c(O[C@H](C)c4c(Cl)ccc(F)c4Cl)c(N)ncc23)s1` [Example 114, 1-(5-{6-Amino-7-[(R)-1-(2,6-dichloro-3-fluorophenyl)ethoxy]furo[3,2-c]pyridin-3-yl}thiophen-2-yl)ethanone], the negative logarithm of the IC50 (pIC50) in experiment [1] and in experiment [2] was 5.30 to 6.30 in each case.

For `C[C@@H](Oc1c(N)ncc2c(-c3cnn(CCN4CCOCC4)c3)coc12)c1c(Cl)ccc(F)c1Cl` [Example 87, 7-[(R)-1-(2,6-Dichloro-3-fluorophenyl)ethoxy]-3-[1-(2-morpholin-4-ylethyl)-1H-pyrazol-4-yl]furo[3,2-c]pyridin-6-ylamine], the negative-log IC50 (pIC50) in experiment [1] and in experiment [2] was 5.30 to 6.30 in each case.

For the compound `C[C@@H](Oc1c(N)ncc2c(C3=CCN(C(=O)C(C)(C)O)CC3)coc12)c1c(Cl)ccc(F)c1Cl` [Example 228, 1-(4-{6-Amino-7-[(R)-1-(2,6-dichloro-3-fluorophenyl)ethoxy]-furo[3,2-c]pyridin-3-yl}-3,6-dihydro-2H-pyridin-1-yl)-2-hydroxy-2-methylpropan-β-one], the pIC50 in experiment [1] and in experiment [2] was 5.30 to 6.30 in each case.

Turning to `C[C@@H](Oc1c(N)ncc2c(C3=CCN(C(=O)CN4CCCC4)CC3)coc12)c1c(Cl)ccc(F)c1Cl` [Example 13, 1-(4-{6-Amino-7-[(R)-1-(2,6-dichloro-3-fluorophenyl)-ethoxy]-furo[3,2-c]pyridin-3-yl}-3,6-dihydro-2H-pyridin-1-yl)-2-pyrrolidin-1-ylethanone], the pIC50 in experiment [1] and in experiment [2] was above 6.30 throughout.

Consider `C[C@@H](Oc1c(N)ncc2c(-c3nccs3)coc12)c1c(Cl)ccc(F)c1Cl` [Example 135, 7-[(R)-1-(2,6-Dichloro-3-fluorophenyl)-ethoxy]-3-thiazol-2-ylfuro[3,2-c]pyridin-6-ylamine], for which the pIC50 in experiment [1] and in experiment [2] was 5.30 to 6.30 in each case.

For `Nc1ncc2c(-c3cnn(C4CCNCC4)c3)coc2c1O[C@H]1CCC[C@H]1c1ccccc1` [Example 407], the values for the pIC50 in experiment [1] and in experiment [2] were 5.30 to 6.30 and above 6.30, respectively.

As for `CC(Oc1c(N)ncc2c(-c3cnn(C4CCNCC4)c3)coc12)c1cc(F)cc(-c2cnn(C)c2)c1` (centres unmarked) [Example 452, 7-{1-[3-Fluoro-5-(1-methyl-1H-pyrazol-4-yl)phenyl]ethoxy}-3-(1-piperidin-4-yl-1H-pyrazol-4-yl)furo[3,2-c]pyridin-6-ylamine], the pIC50 in experiment [1] was 5.30 to 6.30; in experiment [2] it was above 6.30.

Turning to `COc1cccc(-c2coc3c(O[C@H](C)c4c(Cl)ccc(F)c4Cl)c(N)ncc23)c1` [Example 60, 7-[(R)-1-(2,6-Dichloro-3-fluorophenyl)ethoxy]-3-(3-methoxy-phenyl)furo[3,2-c]pyridin-6-ylamine], the pIC50 in experiment [1] was 4.70 to 5.30; in experiment [2] it was 5.30 to 6.30.

On to `Nc1ncc2c(-c3cnn(C4CCNCC4)c3)coc2c1OC(c1c(F)ccc(F)c1Cl)C1CC1` (centres unmarked) [Example 367, 7-[(2-Chloro-3,6-difluorophenyl)cyclopropylmethoxy]-3-(1-piperidin-4-yl-1H-pyrazol-4-yl)furo[3,2-c]pyridin-6-ylamine], for which the negative-log IC50 (pIC50) in experiment [1] and in experiment [2] was above 6.30 in each case.

`C[C@@H](Oc1c(N)ncc2c(-c3ccc(C(=O)NCCN4CCCC4)cc3)coc12)c1c(Cl)ccc(F)c1Cl` [Example 101, 4-{6-Amino-7-[(R)-1-(2,6-dichloro-3-fluorophenyl)ethoxy]-furo[3,2-c]pyridin-3-yl}-N-(2-pyrrolidin-1-ylethyl)benzamide]: the negative logarithm of the IC50 (pIC50) in experiment [1] is 5.30 to 6.30; in experiment [2], above 6.30.

Turning to `C[C@@H](Oc1c(N)ncc2c(-c3cnn(C4CCNCC4)c3)c(-c3ccccc3)oc12)c1c(Cl)ccc(F)c1Cl` [Example 170, 7-[(R)-1-(2,6-Dichloro-3-fluorophenyl)ethoxy]-2-phenyl-3-(1-piperidin-4-yl-1H-pyrazol-4-yl)-furo[3,2-c]pyridin-6-ylamine], the pIC50 in experiment [1] and in experiment [2] was 5.30 to 6.30 each time.

Regarding `CC(Cc1ccc(Cl)c(Cl)c1)Oc1c(N)ncc2c(-c3cnn(C4CCNCC4)c3)coc12` (centres unmarked) [Example 428, 7-[2-(3,4-Dichlorophenyl)-1-methylethoxy]-3-(1-piperidin-4-yl-1H-pyrazol-4-yl)furo[3,2-c]pyridin-6-ylamine], the pIC50 in experiment [1] is above 6.30; in experiment [2], 5.30 to 6.30.

`CC(Oc1c(N)ncc2c(-c3cnn(C4CCNCC4)c3)coc12)c1nc2ccccc2[nH]1` (centres unmarked) [Example 403, 7-[1-(1H-Benzimidazol-2-yl)ethoxy]-3-(1-piperidin-4-yl-1H-pyrazol-4-yl)furo[3,2-c]pyridin-6-ylamine]: the pIC50 in experiment [1] and in experiment [2] was 5.30 to 6.30 in each case.

Turning to `CC(Oc1c(N)ncc2c(-c3cnn(C4CCNCC4)c3)coc12)c1cc(F)cc(-c2ccccc2)c1` (centres unmarked) [Example 449, 7-[1-(5-Fluorobiphenyl-3-yl)ethoxy]-3-(1-piperidin-4-yl-1H-pyrazol-4-yl)furo[3,2-c]pyridin-6-ylamine], the negative logarithm of the IC50 (pIC50) in experiment [1] and in experiment [2] was 5.30 to 6.30 in each case.

With `C[C@@H](Oc1c(N)ncc2c(-c3ccc(C(=O)O)cc3)coc12)c1c(Cl)ccc(F)c1Cl` [Example 65, 4-{6-Amino-7-[(R)-1-(2,6-dichloro-3-fluorophenyl)ethoxy]-furo[3,2-c]pyridin-3-yl}benzoic Acid], the pIC50 in experiment [1] and in experiment [2] was 5.30 to 6.30 each time.

For `CC(O)C(=O)N1CC=C(c2coc3c(O[C@H](C)c4c(Cl)ccc(F)c4Cl)c(N)ncc23)CC1` (stereo partly drawn) [Example 229, 1-(4-{6-Amino-7-[(R)-1-(2,6-dichloro-3-fluorophenyl)ethoxy]-furo[3,2-c]pyridin-3-yl}-3,6-dihydro-2H-pyridin-1-yl)-2-hydroxypropan-1-one], the negative-log IC50 (pIC50) in experiment [1] and in experiment [2] was above 6.30 in each case.

On to `C[C@@H](Oc1c(N)ncc2c(CO)coc12)c1c(Cl)ccc(F)c1Cl` [Example 194, {6-Amino-7-[(R)-1-(2,6-dichloro-3-fluorophenyl)ethoxy]furo[3,2-c]pyridin-3-yl}-methanol], for which the negative logarithm of the IC50 (pIC50) in experiment [1] and in experiment [2] was 5.30 to 6.30 in each case.

As to `C[C@@H](Oc1c(N)ncc2c(C3=CCN(C(=O)CO)CC3)coc12)c1c(Cl)ccc(F)c1Cl` [Example 142, 1-[4-{6-Amino-7-[(1R)-1-(2,6-dichloro-3-fluorophenyl)ethoxy]furo[3,2-c]pyridin-3-yl}-3,6-dihydropyridin-1(2H)-yl]-2-hydroxyethanone], the negative-log IC50 (pIC50) in experiment [1] is 5.30 to 6.30; in experiment [2], above 6.30.

In the case of `C[C@H](Oc1c(N)ncc2c(-c3cnn(C4CCNCC4)c3)coc12)c1ccccn1` [Example 395, 3-(1-Piperidin-4-yl-1H-pyrazol-4-yl)-7-((S)-1-pyridin-2-yl-ethoxy)furo[3,2-c]pyridin-6-ylamine], the pIC50 in experiment [1] and in experiment [2] was 5.30 to 6.30 throughout.

On to `C[C@@H](Oc1c(N)ncc2c(-c3cccc(C(=O)NCCN(C)C)c3)coc12)c1c(Cl)ccc(F)c1Cl` [Example 74, 3-{6-Amino-7-[(R)-1-(2,6-dichloro-3-fluorophenyl)ethoxy]-furo[3,2-c]pyridin-3-yl}-N-(2-dimethylaminoethyl)benzamide], for which the negative-log IC50 (pIC50) in experiment [1] and in experiment [2] was above 6.30 each time.

`C[C@@H](Oc1c(N)ncc2c(-c3cccc(C(N)=O)c3)coc12)c1c(Cl)ccc(F)c1Cl` [Example 70, 3-{6-Amino-7-[(R)-1-(2,6-dichloro-3-fluorophenyl)ethoxy]-furo[3,2-c]pyridin-3-yl}benzamide]: the pIC50 in experiment [1] and in experiment [2] was 5.30 to 6.30 in each case.
